Where two headings read alike, the source gives them in different places.
Experiments:
M1 muscarinic receptor = target: T1, M1 muscarinic receptor (Homo sapiens, UniProt P11229); experiment: Functional mobilization of intracellular calcium (FLIPR) in M1-CHO cells; type: cell-based
T1 construct: expressed in transfected cells; host or cells: CHO (M1-CHO)
T1 sequence (P11229 1-460): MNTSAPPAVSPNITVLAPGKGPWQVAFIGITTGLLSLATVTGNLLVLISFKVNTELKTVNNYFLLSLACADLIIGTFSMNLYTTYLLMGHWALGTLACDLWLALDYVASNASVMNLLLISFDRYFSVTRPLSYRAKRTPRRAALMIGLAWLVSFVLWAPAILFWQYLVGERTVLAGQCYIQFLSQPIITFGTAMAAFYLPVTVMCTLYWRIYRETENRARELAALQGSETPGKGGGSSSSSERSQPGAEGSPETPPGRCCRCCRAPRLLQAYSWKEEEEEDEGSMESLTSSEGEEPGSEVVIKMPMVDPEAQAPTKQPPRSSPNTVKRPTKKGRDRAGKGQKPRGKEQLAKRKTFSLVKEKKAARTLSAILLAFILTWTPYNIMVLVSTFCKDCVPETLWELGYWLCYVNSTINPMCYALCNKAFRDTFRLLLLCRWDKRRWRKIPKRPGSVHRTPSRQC
Outline: (§1)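 Intracellular calcium rise is measured by FLIPR fluorescence over 60 sec in CHO cells carrying human M1 or M4 receptors. Compounds are tested alone as agonists, or pre-incubated 15 min (or co-applied) ahead of carbachol at its EC80 to detect inhibition.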

M4 muscarinic receptor = target: T2, M4 muscarinic receptor (Homo sapiens, UniProt P08173); experiment: Functional mobilization of intracellular calcium (FLIPR) in M4-CHO cells; type: cell-based
T2 construct: expressed in transfected cells; host or cells: CHO (M4-CHO)
T2 sequence (P08173 1-479): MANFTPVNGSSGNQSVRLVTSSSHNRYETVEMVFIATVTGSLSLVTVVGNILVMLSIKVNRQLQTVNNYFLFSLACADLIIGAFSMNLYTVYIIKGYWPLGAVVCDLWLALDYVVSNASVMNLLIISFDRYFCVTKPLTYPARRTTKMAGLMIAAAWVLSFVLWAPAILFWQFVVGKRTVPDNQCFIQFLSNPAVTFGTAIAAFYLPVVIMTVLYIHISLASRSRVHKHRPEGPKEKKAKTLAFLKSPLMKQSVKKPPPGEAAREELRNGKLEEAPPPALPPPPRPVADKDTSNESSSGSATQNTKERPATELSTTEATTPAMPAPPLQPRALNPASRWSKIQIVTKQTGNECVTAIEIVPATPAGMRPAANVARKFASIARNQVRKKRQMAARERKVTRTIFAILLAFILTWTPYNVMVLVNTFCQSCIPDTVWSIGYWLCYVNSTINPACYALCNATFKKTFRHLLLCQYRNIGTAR
Outline: as §1

[1] = Table 4, 100% efficacy is the maximum response obtained with the Carbachol control
[2] = Table 4, modulating M1 receptor
[3] = Table 4, modulating M4 receptor
[4] = M1-CHO cells, calcium mobilization (FLIPR)
[5] = M1-CHO cells, calcium mobilization (FLIPR), read-out: M1 Efficacy
[6] = M4-CHO cells, calcium mobilization (FLIPR)
[7] = M4-CHO cells, calcium mobilization (FLIPR), read-out: M4 Efficacy
[8] = Table 4, M1 receptor, calcium mobilization (FLIPR)
[9] = Table 4, M4 receptor, calcium mobilization (FLIPR)

Compound	Emax (M1 muscarinic receptor; [1])	M1 Activity (M1 muscarinic receptor; [2])	Emax (M4 muscarinic receptor; [1])	M4 Activity (M4 muscarinic receptor; [3])	further results
CN(C)C(=O)N1CC2(CCN(C3CCN(c4cncnc4)CC3)CC2)c2cc(F)ccc21 [compound 528]	25 to 100%	xx (activity was measured to be between 2.0 μM and 5.0 μM)	25 to 100%	xxx (activity was measured to be less than 2.0 μM)	–
CC(=O)N1CC2(CCN(C3CCN(C(=O)O[C@H]4CCOC4)CC3)CC2)c2cc(F)ccc21 [compound 418]	–	–	–	–	EC50 (M1 muscarinic receptor; [4]): > 1000 nM; Emax (M1 muscarinic receptor; [5]): < 65%; EC50 (M4 muscarinic receptor; [6]): > 1000 nM; Emax (M4 muscarinic receptor; [7]): < 65%
CCOC(=O)N1CCC(N2CCC3(CCCc4ccccc43)CC2)CC1 [compound 591]	> 100%	xxx (activity was measured to be less than 2.0 μM)	25 to 100%	xxx (activity was measured to be less than 2.0 μM)	–
C#CCCOC(=O)N1CC[C@H](CN2CCC3(CC2)CN(C(C)=O)c2ccccc23)C1 [compound 549]	< 25%	x (activity was measured to be greater than 5.0 μM)	< 25%	x (activity was measured to be greater than 5.0 μM)	–
CC(=O)N[C@@H]1CCC2(CCN([C@@H]3C[C@H]4CC[C@@H]3C4)CC2)c2ccccc21 [compound 506]	< 25%	x (activity was measured to be greater than 5.0 μM)	25 to 100%	xx (activity was measured to be between 2.0 μM and 5.0 μM)	–
CCOC(=O)N1CCC(N2CCC3(CC2)CN(C(C)=O)c2c(-c4ccc(F)cc4)cccc23)CC1 [compound 992]	25 to 100%	–	25 to 100%	–	M1 Activity (M1 muscarinic receptor; [8]): x (activity was measured to be greater than 5.0 μM); M4 Activity (M4 muscarinic receptor; [9]): x (activity was measured to be greater than 5.0 μM)
COCCOC(=O)N1CC2(CCN(C3CC4CCC(C3)N4C(=O)OC(C)C)CC2)c2cc(F)ccc21 (stereo not drawn) [compound 422]	–	–	–	–	EC50 (M1 muscarinic receptor; [4]): < 100 nM; Emax (M1 muscarinic receptor; [5]): < 65%; EC50 (M4 muscarinic receptor; [6]): > 1000 nM; Emax (M4 muscarinic receptor; [7]): < 65%
COc1ccc(C(=O)N2CCC(N3CCC4(CC3)CN(C(=O)N(C)C)c3ccc(F)cc34)CC2)cc1 [compound 917]	< 25%	–	< 25%	–	M1 Activity (M1 muscarinic receptor; [8]): x (activity was measured to be greater than 5.0 μM); M4 Activity (M4 muscarinic receptor; [9]): x (activity was measured to be greater than 5.0 μM)
CN(C)C(=O)N1CC2(CCN(C3CCN(c4cccc(F)c4)CC3)CC2)c2cc(F)ccc21 [compound 866]	25 to 100%	–	25 to 100%	–	M1 Activity (M1 muscarinic receptor; [8]): xx (activity was measured to be between 2.0 μM and 5.0 μM); M4 Activity (M4 muscarinic receptor; [9]): xxx (activity was measured to be less than 2.0 μM)
O=C1CCCCC1N1CC2(CCN(C3CC4CCC(C4)C3)CC2)c2cc(F)ccc21 (stereo not drawn) [compound 621]	25 to 100%	xx (activity was measured to be between 2.0 μM and 5.0 μM)	25 to 100%	xxx (activity was measured to be less than 2.0 μM)	–
CCCCC(=O)N1CC2(CCN(C3CCN(C(=O)OCC)CC3)CC2)c2cc(F)ccc21 [compound 270]	–	–	–	–	M1 Activity (M1 muscarinic receptor; M1 receptor, calcium mobilization): xxx (activity was measured to be less than 0.1 μM); Emax (M1 muscarinic receptor; M1 receptor, calcium mobilization, read-out: M1 Efficacy): 65 to 85%; M4 Activity (M4 muscarinic receptor; M4 receptor, calcium mobilization): xxx (activity was measured to be less than 0.1 μM); Emax (M4 muscarinic receptor; M4 receptor, calcium mobilization, read-out: M4 Efficacy): > 85%
COC(=O)N1CC[C@H](CN2CCC3(CC2)CN(C(C)=O)c2ccccc23)C1 [compound 680]	25 to 100%	xx (activity was measured to be between 2.0 μM and 5.0 μM)	25 to 100%	xxx (activity was measured to be less than 2.0 μM)	–

Source: US7786141B2 (Vertex Pharmaceuticals Incorporated, priority 2004, dated 2010)
